Molecular target: T1, Human HPK1, catalytic domain (Homo sapiens, UniProt Q92918)
T1 construct: purchased Carna
T1 sequence (Q92918 1-346): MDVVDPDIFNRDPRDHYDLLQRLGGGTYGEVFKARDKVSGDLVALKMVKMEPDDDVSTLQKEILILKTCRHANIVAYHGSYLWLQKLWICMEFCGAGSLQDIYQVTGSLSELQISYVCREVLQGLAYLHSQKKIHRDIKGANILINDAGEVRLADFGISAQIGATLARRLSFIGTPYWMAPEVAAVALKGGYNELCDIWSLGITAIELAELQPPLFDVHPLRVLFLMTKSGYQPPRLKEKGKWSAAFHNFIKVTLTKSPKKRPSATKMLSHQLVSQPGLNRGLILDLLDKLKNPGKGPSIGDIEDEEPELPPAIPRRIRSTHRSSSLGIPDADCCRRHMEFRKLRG
Experiment: HPK1-SLP76 TR-FRET assay
Type: biochemical
Conditions: 75 pM HPK1, 10 uM ATP, 10 nM SLP76, 30 min compound pre-incubation

SMILES	IC50
COc1cc2c(cc1Nc1ncc(C(N)=O)c(Nc3c(F)cccc3C(F)(F)F)n1)CN(C)CC21CC1 [Example 21-1, 4-((2-fluoro-6-(trifluoromethyl)phenyl)amino)-2-((6′-methoxy-2′-methyl-2′,3′-dihydro-1′H-spiro[cyclopropane-1,4′-isoquinolin]-7′-yl)amino)pyrimidine-5-carboxamide]	0.21 nM
COc1cc2c(cc1Nc1ncc(C(N)=O)c(Nc3ccccc3Br)n1)CN(C(=O)C1CCC1)CC2 [Example 12-9, 4-[(2-bromophenyl)amino]-2-{[2-(cyclobutanecarbonyl)-6-methoxy-1,2,3,4-tetrahydroisoquinolin-7-yl]amino}pyrimidine-5-carboxamide]	172 nM
COc1cc2c(cc1Nc1ncc(C(N)=O)c(Nc3ccccc3C(F)(F)F)n1)CN(C)C(C)C2 (racemic) [Example 23-3, (RAC)-2-((6-methoxy-2,3-dimethyl-1,2,3,4-tetrahydroisoquinolin-7-yl)amino)-4-((2-(trifluoromethyl)phenyl)amino)pyrimidine-5-carboxamide]	0.28 nM
COc1cc2c(cc1Nc1ncc(C(N)=O)c(Nc3ccccc3C3CCOCC3)n1)CN(C)CC2 [Example 13-13, 2-[(6-methoxy-2-methyl-1,2,3,4-tetrahydroisoquinolin-7-yl)amino]-4-{[2-(oxan-4-yl)phenyl]amino}pyrimidine-5-carboxamide]	1.09 nM
COc1cc2c(cc1Nc1ncc(C(N)=O)c(Nc3ccccc3CN)n1)CN(C)CC2 [Example 2-3, 4-{[2-(aminomethyl)phenyl]-amino}-2-[(6-methoxy-2-methy1-1,2,3,4-tetrahydroisoquinolin-7-yl)amino]pyrimidine-5-carboxamide]	1.64 nM
NC(=O)c1cnc(Nc2ccc3c(c2)CNCC3)nc1NC1CCc2cc(F)c(F)cc21 (centres unmarked) [Example 26-53, 4-[(5,6-difluoro-2,3-dihydro-1H-inden-1-yl)amino]-2-[(1,2,3,4-tetrahydroisoquinolin-7-yl)amino]pyrimidine-5-carboxamide]	0.23 nM
COc1cc2c(cc1Nc1ncc(C(N)=O)c(NC3CC4C5CCC(C5)C34)n1)CN(C)CC2 (centres unmarked) [Example 26-15, 2-[(6-methoxy-2-methyl-1,2,3,4-tetrahydroisoquinolin-7-yl)amino]-4-[(tricyclo[4.2.1.0~2,5~]nonan-3-yl)amino]pyrimidine-5-carboxamide]	0.25 nM
COc1cc2c(cc1Nc1ncc(C(N)=O)c(NC3C[C@@H]4CC[C@H]3C4)n1)CN(C)CC2 (stereo partly drawn) [Example 26-14, 4-{[(1S,4R)-bicyclo[2.2.1]heptan-2-yl]amino}-2-[(6-methoxy-2-methyl-1,2,3,4-tetrahydroisoquinolin-7-yl)amino]pyrimidine-5-carboxamide]	0.14 nM
COc1cc2c(cc1Nc1ncc(C(N)=O)c(N[C@H]3CCc4ccccc43)n1)CN(C)CC2 [Example 26-37, 4-{[(1S)-2,3-dihydro-1H-inden-1-yl]amino}-2-[(6-methoxy-2-methyl-1,2,3,4-tetrahydroisoquinolin-7-yl)amino]pyrimidine-5-carboxamide]	0.38 nM
COc1cc(F)ccc1Nc1ncc(C(N)=O)c(Nc2cccc3c2CCNC3=O)n1 [Example 25-41, 2-[(4-fluoro-2-methoxyphenyl)amino]-4-[(1-oxo-1,2,3,4-tetrahydroisoquinolin-5-yl)amino]pyrimidine-5-carboxamide]	733 nM
COc1cc2c(cc1Nc1ncc(C(N)=O)c(NC3CCc4cc(F)cc(F)c43)n1)CN(C)CC2 (centres unmarked) [Example 26-68, 4-[(5,7-difluoro-2,3-dihydro-1H-inden-1-yl)amino]-2-[(6-methoxy-2-methyl-1,2,3,4-tetrahydroisoquinolin-7-yl)amino]pyrimidine-5-carboxamide]	2.62 nM
COc1cc2c(cc1Nc1ncc(C(N)=O)c(Nc3ccccc3Br)n1)CN(S(=O)(=O)C1CC1)CC2 [Example 10-8, 4-[(2-bromophenyl)amino]-2-{[2-(cyclopropylsulfonyl)-6-methoxy-1,2,3,4-tetrahydroisoquinolin-7-yl]amino}pyrimidine-5-carboxamide]	845 nM
CC(C)n1cc(Nc2ncc(C(N)=O)c(Nc3cccc4c3CCNC4=O)n2)cn1 [Example 7-50, 4-[(1-oxo-1,2,3,4-tetrahydroisoquinolin-5-yl)amino]-2-{[1-(propan-2-yl)-1H-pyrazol-4-yl]amino}pyrimidine-5-carboxamide]	6.24 nM
CC(C)(C#N)c1cccc(Nc2ncc(C(N)=O)c(Nc3cccc4c3CCNC4=O)n2)c1 [Example 25-3, 2-{[3-(2-cyanopropan-2-yl)phenyl]amino}-4-[(1-oxo-1,2,3,4-tetrahydroisoquinolin-5-yl)amino]pyrimidine-5-carboxamide]	1.14 nM
COc1cc2c(cc1Nc1ncc(C(N)=O)c(NC3CCC(F)(F)C3)n1)CN(C)CC2 (centres unmarked) [Example 26-38, 4-[(3,3-difluorocyclopentyl)amino]-2-[(6-methoxy-2-methyl-1,2,3,4-tetrahydroisoquinolin-7-yl)amino]pyrimidine-5-carboxamide]	1.07 nM
COC[C@H]1CCC[C@H]1Nc1nc(Nc2cc3c(cc2OC)CCN(C)C3)ncc1C(N)=O [Example 26-28, 4-{[(1R,2S)-2-(methoxymethyl)cyclopentyl]amino}-2-[(6-methoxy-2-methyl-1,2,3,4-tetrahydroisoquinolin-7-yl)amino]pyrimidine-5-carboxamide]	4.92 nM
COc1cc2c(cc1Nc1ncc(C(N)=O)c(Nc3c(F)cccc3Br)n1)CN(C)CC2 [Example 4-4, 4-[(2-bromo-6-fluorophenyl)amino]-2-[(6-methoxy-2-methyl-1,2,3,4-tetrahydroisoquinolin-7-yl)amino]pyrimidine-5-carboxamide]	0.12 nM
NC(=O)c1cnc(Nc2ccccc2)nc1Nc1ccccc1Br [Example 7-105, 4-[(2-bromophenyl)amino]-2-(phenylamino)pyrimidine-5-carboxamide]	345 nM
COc1cc2c(cc1Nc1ncc(C(N)=O)c(Nc3ccccc3OC(C)C)n1)CN(C)CC2 [Example 7-111, 2-[(6-methoxy-2-methyl-1,2,3,4-tetrahydroisoquinolin-7-yl)amino]-4-({2-[(propan-2-yl)oxy]phenyl}amino)pyrimidine-5-carboxamide]	0.26 nM
COc1cc(C2CCNC2)ccc1Nc1ncc(C(N)=O)c(Nc2ccccc2Br)n1 (centres unmarked) [Example 8-3, 4-((2-bromophenyl)amino)-2-((2-methoxy-4-(pyrrolidin-3-yl)phenyl)amino)pyrimidine-5-carboxamide]	9.48 nM
NC(=O)c1cnc(NCc2c(Cl)cccc2Cl)nc1Nc1cccc2c1CCNC2=O [Example 25-24, 2-{[(2,6-dichlorophenyl)methyl]amino}-4-[(1-oxo-1,2,3,4-tetrahydroisoquinolin-5-yl)amino]pyrimidine-5-carboxamide]	230 nM
CS(=O)(=O)Cc1ccc(Nc2ncc(C(N)=O)c(Nc3cccc4c3CCNC4=O)n2)cc1 [Example 7-59, 2-({4-[(methylsulfonyl)methyl]phenyl}amino)-4-[(1-oxo-1,2,3,4-tetrahydroisoquinolin-5-yl)amino]pyrimidine-5-carboxamide]	2.15 nM
COc1cc2c(cc1Nc1ncc(C(N)=O)c(N[C@H](C)c3cccc(F)c3F)n1)CN(C)CC2 [Example 26-20, 4-{[(1R)-1-(2,3-difluorophenyl)ethyl]amino}-2-[(6-methoxy-2-methyl-1,2,3,4-tetrahydroisoquinolin-7-yl)amino]pyrimidine-5-carboxamide]	0.45 nM

Reference: patent US20230416225A1, “DIAMINOPYRIMIDINE CARBOXAMIDE INHIBITORS OF HPK1” (MERCK SHARP & DOHME LLC, priority 2020, published 2023)
